Assay results: the NIST ThermoML archive (doi:10.1021/acs.jced.5b00049)

Experiment: xn = mol fraction of the nth substance listed
Settings: Liquid

CCCCCCCCCCCCCC [tetradecane] + O=C=O
Settings	mass density [kg/m3]
312.99 K, 19070 kPa, x2 = 0.7534	819.95
313 K, 15040 kPa, x2 = 0.7534	811.66
313.01 K, 17010 kPa, x2 = 0.7534	815.79
313.01 K, 18060 kPa, x2 = 0.7534	817.99
313.05 K, 10040 kPa, x2 = 0.7534	799.71
313.05 K, 11940 kPa, x2 = 0.7534	804.49
313.07 K, 10010 kPa, x2 = 0.2469	761.87
313.08 K, 12050 kPa, x2 = 0.2469	763.39
313.08 K, 13990 kPa, x2 = 0.2469	764.87
313.08 K, 16020 kPa, x2 = 0.2469	766.36
313.09 K, 18000 kPa, x2 = 0.2469	767.75
313.11 K, 19000 kPa, x2 = 0.2469	768.47
313.12 K, 13940 kPa, x2 = 0.7534	809.04
313.12 K, 19060 kPa, x2 = 0.8773	833.41
313.13 K, 16010 kPa, x2 = 0.7534	813.59
313.14 K, 13040 kPa, x2 = 0.7534	806.93
313.16 K, 11930 kPa, x2 = 0.5241	778.74
313.16 K, 19060 kPa, x2 = 0.5241	785.72
313.17 K, 12990 kPa, x2 = 0.8773	810.26
313.17 K, 13930 kPa, x2 = 0.5241	780.74
313.17 K, 14050 kPa, x2 = 0.8773	813.95
313.18 K, 16020 kPa, x2 = 0.8773	822.71
313.18 K, 17010 kPa, x2 = 0.8773	826.33
313.19 K, 9970 kPa, x2 = 0.8773	799.39
313.19 K, 10110 kPa, x2 = 0.5241	776.82
313.19 K, 18040 kPa, x2 = 0.8773	829.7
313.2 K, 11990 kPa, x2 = 0.8773	806.52
313.21 K, 18060 kPa, x2 = 0.5241	784.76
313.23 K, 15010 kPa, x2 = 0.8773	818.7
313.35 K, 16050 kPa, x2 = 0.5241	782.84
323.11 K, 10980 kPa, x2 = 0.8773	783.24
323.11 K, 14020 kPa, x2 = 0.2469	757.81
323.11 K, 19020 kPa, x2 = 0.8773	809.81
323.12 K, 16020 kPa, x2 = 0.2469	759.35
323.14 K, 10120 kPa, x2 = 0.2469	754.69
323.14 K, 12060 kPa, x2 = 0.2469	756.22
323.14 K, 13020 kPa, x2 = 0.8773	788.73
323.14 K, 14050 kPa, x2 = 0.8773	791.99
323.14 K, 16040 kPa, x2 = 0.8773	799.2
323.14 K, 17040 kPa, x2 = 0.8773	801.18
323.14 K, 18060 kPa, x2 = 0.8773	805.9
323.14 K, 18980 kPa, x2 = 0.2469	761.61
323.15 K, 10070 kPa, x2 = 0.7534	782.23
323.15 K, 12030 kPa, x2 = 0.7534	787.2
323.15 K, 12050 kPa, x2 = 0.8773	786.07
323.15 K, 13000 kPa, x2 = 0.7534	789.82
323.15 K, 14020 kPa, x2 = 0.7534	791.84
323.15 K, 15060 kPa, x2 = 0.7534	794.75
323.15 K, 16040 kPa, x2 = 0.7534	796.67
323.15 K, 17010 kPa, x2 = 0.7534	799.28
323.15 K, 18070 kPa, x2 = 0.7534	801.5
323.15 K, 19020 kPa, x2 = 0.7534	803.65
323.16 K, 15050 kPa, x2 = 0.8773	795.16
323.19 K, 17960 kPa, x2 = 0.2469	760.81
323.21 K, 16080 kPa, x2 = 0.5241	773.72
323.22 K, 18050 kPa, x2 = 0.5241	775.72
323.22 K, 19040 kPa, x2 = 0.5241	776.7
323.23 K, 10030 kPa, x2 = 0.5241	767.22
323.23 K, 12040 kPa, x2 = 0.5241	769.42
323.23 K, 13980 kPa, x2 = 0.5241	771.51
333.07 K, 10050 kPa, x2 = 0.7534	764.82
333.07 K, 14030 kPa, x2 = 0.7534	774.55
333.07 K, 17060 kPa, x2 = 0.7534	782.56
333.07 K, 18060 kPa, x2 = 0.7534	784.44
333.09 K, 10100 kPa, x2 = 0.5241	757.94
333.11 K, 13040 kPa, x2 = 0.7534	771.85
333.11 K, 16040 kPa, x2 = 0.2469	752.33
333.11 K, 18060 kPa, x2 = 0.5241	766.9
333.11 K, 18060 kPa, x2 = 0.8773	785.49
333.12 K, 15020 kPa, x2 = 0.7534	777.38
333.12 K, 16040 kPa, x2 = 0.7534	779.31
333.13 K, 10010 kPa, x2 = 0.2469	747.3
333.13 K, 13970 kPa, x2 = 0.2469	750.65
333.13 K, 19050 kPa, x2 = 0.8773	788.14
333.13 K, 19080 kPa, x2 = 0.5241	767.96
333.14 K, 16050 kPa, x2 = 0.8773	779.75
333.14 K, 17040 kPa, x2 = 0.8773	782.59
333.15 K, 11930 kPa, x2 = 0.5241	760.02
333.15 K, 12060 kPa, x2 = 0.2469	749.05
333.15 K, 15990 kPa, x2 = 0.5241	764.66
333.15 K, 17980 kPa, x2 = 0.2469	753.84
333.16 K, 18980 kPa, x2 = 0.2469	754.7
333.17 K, 12050 kPa, x2 = 0.7534	769.75
333.17 K, 19050 kPa, x2 = 0.7534	786.81
333.18 K, 14030 kPa, x2 = 0.8773	774.07
333.19 K, 13020 kPa, x2 = 0.8773	771.46
333.2 K, 13970 kPa, x2 = 0.5241	762.35
333.22 K, 15040 kPa, x2 = 0.8773	776.33
343.18 K, 13030 kPa, x2 = 0.7534	757.6
343.2 K, 14070 kPa, x2 = 0.7534	759.71
343.22 K, 10080 kPa, x2 = 0.5241	748.36
343.24 K, 18020 kPa, x2 = 0.2469	746.97
343.25 K, 10080 kPa, x2 = 0.2469	739.8
343.25 K, 12000 kPa, x2 = 0.2469	741.71
343.25 K, 13970 kPa, x2 = 0.5241	753.12
343.26 K, 11930 kPa, x2 = 0.5241	750.66
343.26 K, 17070 kPa, x2 = 0.8773	763.58
343.27 K, 16010 kPa, x2 = 0.2469	745.25
343.27 K, 19050 kPa, x2 = 0.2469	747.79
343.28 K, 16050 kPa, x2 = 0.8773	759.7
343.28 K, 18030 kPa, x2 = 0.7534	768.86
343.29 K, 11990 kPa, x2 = 0.7534	755.9
343.29 K, 15010 kPa, x2 = 0.8773	756.06
343.3 K, 18040 kPa, x2 = 0.8773	766.93
343.32 K, 15970 kPa, x2 = 0.7534	764.11
343.32 K, 19050 kPa, x2 = 0.8773	770.12
343.34 K, 14060 kPa, x2 = 0.2469	743.54
343.34 K, 16930 kPa, x2 = 0.7534	766.37
343.36 K, 18040 kPa, x2 = 0.5241	757.81
343.37 K, 15000 kPa, x2 = 0.7534	761.76
343.37 K, 15990 kPa, x2 = 0.5241	755.45
343.37 K, 19030 kPa, x2 = 0.7534	770.9
343.39 K, 19080 kPa, x2 = 0.5241	758.96
353.36 K, 9980 kPa, x2 = 0.5241	738.86
353.36 K, 12050 kPa, x2 = 0.7534	743.36
353.39 K, 11960 kPa, x2 = 0.5241	741.42
353.39 K, 17030 kPa, x2 = 0.7534	753.15
353.39 K, 18060 kPa, x2 = 0.5241	748.96
353.4 K, 18070 kPa, x2 = 0.2469	741.03
353.41 K, 13000 kPa, x2 = 0.7534	744.77
353.43 K, 11990 kPa, x2 = 0.2469	735.13
353.43 K, 14020 kPa, x2 = 0.5241	744.02
353.43 K, 16060 kPa, x2 = 0.5241	746.56
353.44 K, 19060 kPa, x2 = 0.5241	750.06
353.46 K, 15040 kPa, x2 = 0.7534	748.68
353.46 K, 15990 kPa, x2 = 0.7534	750.82
353.46 K, 18010 kPa, x2 = 0.8773	751.14
353.46 K, 18040 kPa, x2 = 0.7534	755.21
353.47 K, 14010 kPa, x2 = 0.7534	746.82
353.47 K, 19020 kPa, x2 = 0.2469	741.82
353.47 K, 19040 kPa, x2 = 0.8773	754.52
353.48 K, 9970 kPa, x2 = 0.2469	733.1
353.48 K, 14000 kPa, x2 = 0.2469	737.01
353.48 K, 17020 kPa, x2 = 0.8773	747.37
353.52 K, 16030 kPa, x2 = 0.2469	738.93
353.54 K, 18990 kPa, x2 = 0.7534	756.97
